In patent EP4631940A1, “COMPOUND TARGETING PAN-KRAS PROTEIN DEGRADATION AGENT AND USE THEREOF” (Betta Pharmaceuticals Co., Ltd., priority 2022, dated 2024):
Where two headings read alike, the source gives them in different places.

Legend:
[1] = tested on: AGS; assay: Cell proliferation experiment (CellTiter-Glo); type: cell-based; settings: read-out: IC50(nM) AGS
[2] = tested on: SW620; assay: Cell proliferation experiment (CellTiter-Glo); type: cell-based; settings: read-out: IC50(nM) SW620
[3] = molecular target: KRAS G12D (Homo sapiens, UniProt P01116, G12D)
[4] = AGS, KRAS mutation type G12D, 96 h incubation
[5] = SW620, KRAS mutation type G12V, 96 h incubation

Compound	IC50 [1, 4]	IC50 [2, 5]	IC50 [1]	IC50 [2]	DC50 [3]	Dmax (%) [3]
(2S,4R)-1-((S)-2-(4-(5-(2-(4-((1-(((7-(8-ethyl-7-fluoro-3-hydroxynaphthalen-1-yl)-8-fluoro-4-(( R)-3-hydroxy-3-methylpiperidin-1-yl)pyrido[4,3-d]pyrimidin-2-yl)oxy)methyl)cyclopropyl)meth yl)piperazin-1-yl)ethyl)pyrazin-2-yl)-1H-1,2,3-triazol-1-yl)-3-methylbutanoyl)-4-hydroxy-N-((S )-1-(4-(4-methylthiazol-5-yl)phenyl)ethyl)pyrrolidine-2-carboxamide [Compound 191]	–	–	3.1 nM	12 nM	–	–
C=C1CN2[C@H](COC(=O)N3CCC4(CC3)CC(C(=O)N[C@H](C(=O)N3C[C@H](O)C[C@H]3C(=O)N[C@@H](C)c3ccc(-c5scnc5C)cc3)C(C)(C)C)C4)CC[C@@]2(COc2nc(N3CCC[C@@](C)(O)C3)c3cnc(-c4cc(O)cc5ccc(F)c(CC)c45)c(F)c3n2)C1 [Compound 140]	–	–	28 nM	167 nM	–	–
(2S,4R)-1-((2S)-2-(4-(5-(1-(4-((1-(((7-(8-ethyl-7-fluoro-3-hydroxynaphthalen-1-yl)-8-fluoro-4-(( R)-3-hydroxy-3-methylpiperidin-1-yl)pyrido[4,3-d]pyrimidin-2-yl)oxy)methyl)cyclopropyl)meth yl)piperidin-1-yl)ethyl)piperidin-2-yl)-1H-1,2,3-triazol-1-yl)-3-methylbutanoyl)-4-hydroxy-N-(( S)-1-(4-(4-methylthiazol-5-yl)phenyl)ethyl)pyrrolidine-2-carboxamide [Compound 194]	–	–	5.5 nM	26 nM	–	–
(2S,4R)-1-((S)-2-(4-(5-(3-(4-((1-((7-(8-ethyl-7-fluoro-3-hydroxynaphthalen-1-yl)-8-fluoro-4-((R )-3-hydroxy-3-methylpiperidin-1-yl)pyrido[4,3-d]pyrimidin-2-yl)oxy)methyl)cyclopropyl)methy l)piperazin-1-yl)azetidin-1-yl)pyrazin-2-yl)-1H-1,2,3-triazol-1-yl)-3-methylbutanoyl)-4-hydroxy -N-((R)-2-hydroxy-1-(4-(4-methylthiazol-5-yl)phenyl)ethyl)pyrrolidine-2-carboxamide [Compound 192]	3.2 nM	17 nM	–	–	–	–
(2S,4R)-1-((S)-2-(4-(5-((1-((1-(((7-(8-ethyl-7-fluoro-3-hydroxynaphthalen-1-yl)-8-fluoro-4-((R)-3-hydroxy-3-methylpiperidin-1-yl)pyrido[4,3-d]pyrimidin-2-yl)oxy)methyl)cyclopropyl)methyl) piperidin-4-yl)methyl)piperazin-2-yl)-1H-1,2,3-triazol-1-yl)-3-methylbutanoyl)-4-hydroxy-N-((S )-1-(4-(4-methylthiazol-5-yl)phenyl)ethyl)pyrrolidine-2-carboxamide [Compound 193]	–	–	7.3 nM	24 nM	–	–
(2S,4R)-1-((S)-2-(4-(5-(3-(1-(((7-(8-ethyl-7-fluoro-3-hydroxynaphthalen-1-yl)-8-fluoro-4-((R)-3 -hydroxy-3-methylpiperidin-1-yl)pyrido[4,3-d]pyrimidin-2-yl)-3-methylbutanoyl)-4-hydroxy-N-((S)-1-(4-(4-methylthiazol-5-yl)phenyl)ethyl)pyrrolidine-2-carboxamide [Compound 200]	4.6 nM	20 nM	–	–	–	–
(2S,4R)-1-((S)-2-(4-(5-(2-(4-((1-((7-(8-ethyl-7-fluoro-3-hydroxynaphthalen-1-yl)-8-fluoro-4-((R )-3-hydroxy-3-methylpiperidin-1-yl)pyrido[4,3-d]pyrimidin-2-yl)oxy)methyl)cyclopropyl)methy l)piperazin-1-yl)-2-oxyethyl)pyrazin-2-yl)-1H-1,2,3-triazol-1-yl)-3-methylbutanoyl)-4-hydroxy-N-((S)-1-(4-(4-methylthiazol-5-yl)phenyl)ethyl)pyrrolidine-2-carboxamide [Compound 174]	8 nM	59 nM	–	–	–	–
(7-(8-ethyl-7-fluoro-3-hydroxynaphthalen-1-yl)-8-fluoro-4-(R)-3-hydroxy-3-methylpiperidin-1-y l)pyrido[4,3-d]pyrimidin-2-yl)oxy)methyl)-6-methylenehexahydro-1H-pyrrolizin-3-yl)methyl ((3-(1-((S)-1-(2S,4R)-4-hydroxy-2-(S)-1-(4-methylthiazol-5-yl)phenyl)ethyl)carbamoyl)pyrrolidi n-1-yl)-3-methyl-1-oxobutan-2-yl)-1H-1,2,3-triazol-4-yl)bicyclo[1.1.1]pentan-1-yl)methyl)carba mate [Compound 126]	–	–	32 nM	246 nM	23 nM	95%
CCc1c(F)ccc2cc(O)cc(-c3ncc4c(N5CCC[C@@](C)(O)C5)nc(OCC5(CN6CCC(c7cc([C@H](C(=O)N8C[C@H](O)C[C@H]8C(=O)N[C@@H](C)c8ccc(-c9scnc9C)cc8)C(C)C)on7)CC6)CC5)nc4c3F)c12 [Compound 147]	–	–	16 nM	–	24 nM	95%

The next lines start with results.

IC50 [1, 4]	IC50 [2, 5]	Compound	IC50 [1]	IC50 [2]	DC50 [3]	Dmax (%) [3]
6 nM	35 nM	CCc1c(F)ccc2cc(O)cc(-c3ncc4c(N5CCC[C@@](C)(O)C5)nc(OCC5(CN6CCN(C(=O)c7cnc(-c8cn([C@H](C(=O)N9C[C@H](O)C[C@H]9C(=O)N[C@@H](C)c9ccc(-c%10scnc%10C)cc9)C(C)C)nn8)cn7)CC6)CC5)nc4c3F)c12 [Compound 173]	–	–	–	–
11 nM	38 nM	CCc1c(F)ccc2cc(O)cc(-c3ncc4c(N5CCC[C@@](C)(O)C5)nc(OCC5(CN6CCC(Oc7cnc(-c8cn([C@H](C(=O)N9C[C@H](O)C[C@H]9C(=O)N[C@@H](CC(=O)NC)c9ccc(-c%10scnc%10C)cc9)C(C)C)nn8)cn7)CC6)CC5)nc4c3F)c12 [Compound 190, (2S,4R)-1-((S)-2-(4-(5-(1-((((7-(8-ethyl-7-fluoro-3-hydroxynaphthalen-1-yl)-8-fluoro-4-(((R)-3-hydroxy-3-methylpiperidin-1-yl)pyrido[4,3-d]pyrimidin-2-yl)oxy)methyl)cyclopropyl)methyl)piperidin-4-yl)oxy)-2-ylpyrazin-1H-1,2,3-triazol-1-yl)-3-methylbutanoyl)-4-hydroxy-N-((S)-3-(methylamino)-1-(4-(4-methylthiazol-5-yl)phenyl)-3-oxopropyl)pyrrolidine-2-carboxamide]	–	–	–	–
6.9 nM	21 nM	CCc1c(F)ccc2cc(O)cc(-c3ncc4c(N5CCC[C@@](C)(O)C5)nc(OCC5(CN6CCC(OCc7cnc(-c8cn([C@H](C(=O)N9C[C@H](O)C[C@H]9C(=O)N[C@@H](C)c9ccc(-c%10scnc%10C)cc9)C(C)C)nn8)cn7)CC6)CC5)nc4c3F)c12 [Compound 198]	–	–	–	–
15 nM	54 nM	CCc1c(F)ccc2cc(O)cc(-c3ncc4c(N5CCCC(C)(O)C5)nc(OCC5(CN6CCN(Cc7cc(-c8cn([C@H](C(=O)N9C[C@H](O)C[C@H]9C(=O)N[C@@H](C)c9ccc(-c%10scnc%10C)cc9)C(C)C)nn8)n(C)n7)CC6)CC5)nc4c3F)c12 (stereo partly drawn) [Compound 202]	–	–	–	–
26 nM	70 nM	CCc1c(F)ccc2cc(O)cc(-c3ncc4c(N5CCC[C@@](C)(O)C5)nc(OCC5(CN6CCN(CCOc7cc([C@H](C(=O)N8C[C@H](O)C[C@H]8C(=O)N[C@@H](C)c8ccc(-c9scnc9C)cc8)C(C)C)on7)CC6)CC5)nc4c3F)c12 [Compound 175]	–	–	–	–
6.1 nM	32 nM	CCc1c(F)ccc2cc(O)cc(-c3ncc4c(N5CCC[C@@](C)(O)C5)nc(OCC5(CN6CCN(C7CCN(c8cnc(-c9cn([C@H](C(=O)N%10C[C@H](O)C[C@H]%10C(=O)N[C@@H](C)c%10ccc(-c%11scnc%11C)cc%10)C(C)C)nn9)cn8)CC7)CC6)CC5)nc4c3F)c12 [Compound 197]	–	–	–	–
4.4 nM	18 nM	CCc1c(F)ccc2cc(O)cc(-c3ncc4c(N5CCC[C@@](C)(O)C5)nc(OCC5(CN6CCC(N7CCC(c8cnc(-c9cn([C@H](C(=O)N%10C[C@H](O)C[C@H]%10C(=O)N[C@@H](C)c%10ccc(-c%11scnc%11C)cc%10)C(C)C)nn9)cn8)CC7)CC6)CC5)nc4c3F)c12 [Compound 195]	–	–	–	–
13 nM	46 nM	CCc1c(F)ccc2cccc(-c3ncc4c(N5CCC[C@@](C)(O)C5)nc(OCC5(CN6CCC(Oc7cnc(-c8cn([C@H](C(=O)N9C[C@H](O)C[C@H]9C(=O)N[C@@H](C)c9ccc(-c%10scnc%10C)cc9)C(C)C)nn8)cn7)CC6)CC5)nc4c3F)c12 [Compound 201]	–	–	–	–
4 nM	15 nM	CCc1c(F)ccc2cc(O)cc(-c3ncc4c(N5CCC[C@@](C)(O)C5)nc(OCC5(CN6CCC(N7CCN(c8cnc(-c9cn([C@H](C(=O)N%10C[C@H](O)C[C@H]%10C(=O)N[C@@H](C)c%10ccc(-c%11scnc%11C)cc%10)C(C)C)nn9)cn8)CC7)CC6)CC5)nc4c3F)c12 [Compound 196, (2S,4R)-1-((S)-2-(4-(5-(4-(1-(((7-(8-ethyl-7-fluoro-3-hydroxynaphthalen-1-yl)-8-fluoro-4-(((R)-3-hydroxy-3-methylpiperidin-1-yl)pyrido[4,3-d]pyrimidin-2-yl)oxy)methyl)cyclopropyl)methyl)piperidin-4-yl)piperazin-1-yl)pyrazin-2-yl)-1H-1,2,3-triazol-1-yl)-3-methylbutanoyl)-4-hydroxy-N-(((S)-1-(4-(4-methylthiazol-5-yl)phenyl)ethyl)pyrrolidine-2-carboxamide]	–	–	–	–
